Results: ChEMBL document CHEMBL4196241, “Auranthine, a Benzodiazepinone from Penicillium aurantiogriseum: Refined Structure, Absolute Configuration, and Cytotoxicity” (J Nat Prod, 2018)
Active and inactive are the calls of the source. The rule behind the calls is not given here.

Tests used:
Homo sapiens [1] = organism: Homo sapiens; experiment: Cytotoxicity against human IHKE cells assessed as reduction in cell viability up to 100 uM by CCK8 assay; assay type: functional, cell-based
HepG2 [2] = experiment: Cytotoxicity against human HepG2 cells assessed as reduction in cell viability up to 100 uM by CCK8 assay; assay type: functional, cell-based
Homo sapiens [3] = organism: Homo sapiens; experiment: (§1) Cytotoxicity against human IHKE cells assessed as reduction in cell viability by CCK8 assay; assay type: functional, cell-based
HepG2 [4] = experiment: Cytotoxicity against human HepG2 cells assessed as reduction in cell viability by CCK8 assay relative to control; assay type: functional, cell-based
HepG2 [5] = experiment: Cytotoxicity against human HepG2 cells assessed as reduction in cell viability at 100 uM by CCK8 assay relative to control; assay type: functional
[6] = as §1; assay type: functional, cell-based

| Compound | Activity (Homo sapiens [1]) | Activity (HepG2 [2]) | Activity (Homo sapiens [3]) | Activity (HepG2 [4]) | Activity (HepG2 [5]) | IC50 [6] [µM] |
| --- | --- | --- | --- | --- | --- | --- |
| N#CCC[C@@H]1NC(=O)c2ccccc2N2C(=O)c3ccccc3N[C@H]12 | inactive | inactive | – | – | – | – |
| CN1C(=O)c2ccccc2N2C(=O)c3ccccc3N[C@@H]2[C@@H]1CCC#N | – | inactive | Dose-dependent effect | – | – | – |
| C=CC(C)(C)c1[nH]cnc1/C=C1\NC(=O)[C@H](C(C)C)NC1=O | – | – | – | Dose-dependent effect | <=56% | 25 |
| N#CCC[C@@H]1NC(=O)c2ccccc2-n2c1nc1ccccc1c2=O | inactive | inactive | – | – | – | – |
